Laboratory results reported in patent US20210395239A1 (Hoffmann-La Roche Inc., priority 2018, published 2021).

Each molecule was assayed against T1, human TLR7 (Homo sapiens, UniProt Q9NYK1) (assay: HEK293-Blue-hTLR-7 cells assay (SEAP reporter, R848 stimulation)). Conditions: HEK293-Blue-hTLR7 cells, R848, 20 hrs; read-out: HEK/hTLR7 IC50.
T1 construct: host or cells: HEK293 (HEK-Blue hTLR7)
T1 sequence (Q9NYK1 27-1049): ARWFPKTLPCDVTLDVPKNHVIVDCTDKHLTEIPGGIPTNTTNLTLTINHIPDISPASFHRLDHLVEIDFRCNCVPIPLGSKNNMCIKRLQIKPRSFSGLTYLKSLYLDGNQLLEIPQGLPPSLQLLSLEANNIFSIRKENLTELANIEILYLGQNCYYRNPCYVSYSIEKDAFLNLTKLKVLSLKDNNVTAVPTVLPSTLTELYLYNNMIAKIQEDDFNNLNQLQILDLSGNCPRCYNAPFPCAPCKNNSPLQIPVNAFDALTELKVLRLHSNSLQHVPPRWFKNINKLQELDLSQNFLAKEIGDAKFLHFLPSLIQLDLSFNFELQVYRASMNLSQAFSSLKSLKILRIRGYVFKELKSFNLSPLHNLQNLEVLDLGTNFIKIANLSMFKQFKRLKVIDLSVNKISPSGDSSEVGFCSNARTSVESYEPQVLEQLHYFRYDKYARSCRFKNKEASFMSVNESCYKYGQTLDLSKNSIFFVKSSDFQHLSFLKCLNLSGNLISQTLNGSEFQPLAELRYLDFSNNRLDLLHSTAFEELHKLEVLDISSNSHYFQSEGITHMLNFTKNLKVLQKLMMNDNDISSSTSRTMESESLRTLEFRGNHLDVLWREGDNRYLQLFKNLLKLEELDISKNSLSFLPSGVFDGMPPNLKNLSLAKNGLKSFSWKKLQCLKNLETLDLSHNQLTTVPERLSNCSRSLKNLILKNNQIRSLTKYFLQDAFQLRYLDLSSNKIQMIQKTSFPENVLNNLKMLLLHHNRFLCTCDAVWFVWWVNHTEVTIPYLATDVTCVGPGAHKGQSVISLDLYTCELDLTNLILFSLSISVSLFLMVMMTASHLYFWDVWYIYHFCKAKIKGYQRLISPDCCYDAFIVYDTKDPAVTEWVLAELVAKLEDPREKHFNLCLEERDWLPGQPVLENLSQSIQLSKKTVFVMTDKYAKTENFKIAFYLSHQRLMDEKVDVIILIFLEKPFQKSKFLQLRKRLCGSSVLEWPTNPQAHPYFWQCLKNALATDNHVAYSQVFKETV
Format: cell-based
From the text: HEK293-Blue-hTLR-7 Cells Assay:
A stable HEK293-Blue-hTLR-7 cell line was purchased from InvivoGen (Cat. #: hkb-ht1r7, San Diego, Calif., USA). These cells were originally designed for studying the stimulation of human TLR7 by monitoring the activation of NF-κB. A SEAP (secreted embryonic alkaline phosphatase) reporter gene was placed under the control of the IFN-β minimal promoter fused to five NF-κB and AP-1-binding sites. The SEAP was induced by activating NF-κB and AP-1 via stimulating HEK-Blue hTLR7 cells with TLR7 ligands. Therefore the reporter expression was declined by TLR7 antagonist under the stimulation of a ligand, such as R848 (Resiquimod), for incubation of 20 hrs. The cell culture supernatant SEAP reporter activity was determined using QUANTI-Blue™ kit (Cat. #: rep-qb1, Invivogen, San Diego, Ca, USA) at a wavelength of 640 nm, a detection medium that turns purple or blue in the presence of alkaline phosphatase.
HEK293-Blue-hTLR7 cells were incubated at a density of […] cells/mL in a volume of 170 μL in a 96-well plate in Dulbecco's Modified Eagle's medium (DMEM) containing 4.5 g/L glucose, 50 U/mL penicillin, […], […], 2 mM L-glutamine, 10% (v/v) heat-inactivated fetal bovine serum with addition of 20 μL test compound in a serial dilution in the presence of final DMSO at 1% and 10 μL of 20 uM R848 in above DMEM, perform incubation under 37° C. in a CO2 incubator for 20 hrs. Then 20 μL of the supernatant from each well was incubated with 180 μL Quanti-blue substrate solution at 37° C. for 2 hrs and the absorbance was read at 620˜655 nm using a spectrophotometer. The signaling pathway that TLR7 activation leads to downstream NF-κB activation has been widely accepted, and therefore similar reporter assay was modified for evaluating TLR7 antagonist.

SMILES	IC50
COC1CN(c2nccc(N3CCN(C[C@H]4CN(c5ccc(C#N)c6ncccc56)C[C@@H](C)O4)CC3)n2)CC1N (stereo in doubt) [Example 93, 5-[(2S,6R)-2-[[4-[2-[(3R,4S)-3-amino-4-methoxy-pyrrolidin-1-yl]pyrimidin-4-yl]piperazin-1-yl]methyl]-6-methyl-morpholin-4-yl]quinoline-8-carbonitrile]	12 nM
C[C@@H]1CN(c2ccc(C#N)c3ncccc23)C[C@H](CN2CCC(c3cccc(N4CCNCC4)c3)C2)O1 (stereo partly drawn) [Example 1, 5-[(2R,6S)-2-methyl-6-[[3-(3-piperazin-1-ylphenyl)pyrrolidin-1-yl]methyl]morpholin-4-yl]quinoline-8-carbonitrile]	84 nM
C[C@@H]1CN(c2ccc(C#N)c3ncccc23)C[C@H](CN2CCC(c3cccc(C4CCNCC4)c3)CC2)O1 [Example 2, 5-[(2R,6S)-2-methyl-6-[[4-[3-(4-piperidyl)phenyl]-1-piperidyl]methyl]morpholin-4-yl]quinoline-8-carbonitrile]	93 nM
C[C@@H]1CN(c2ccc(C#N)c3ncccc23)C[C@H](CN2CC(c3ccc(N4CCNCC4)cc3)C2)O1 [Example 3, 5-[(2R,6S)-2-methyl-6-[[3-(4-piperazin-1-ylphenyl)azetidin-1-yl]methyl]morpholin-4-yl]quinoline-8-carbonitrile]	11 nM
C[C@@H]1CN(c2ccc(C#N)c3ncccc23)C[C@H](CN2CC(c3cccc(N4CCNCC4)c3)C2)O1 [Example 4, 5-[(2R,6S)-2-methyl-6-[[3-(3-piperazin-1-ylphenyl)azetidin-1-yl]methyl]morpholin-4-yl]quinoline-8-carbonitrile]	16 nM
C[C@@H]1CN(c2ccc(C#N)c3ncccc23)C[C@H](CN2CCN(c3ccc(CN)cc3)CC2)O1 [Example 5, 5-[(2S,6R)-2-[[4-[4-(aminomethyl)phenyl]piperazin-1-yl]methyl]-6-methyl-morpholin-4-yl]quinoline-8-carbonitrile]	54 nM
C[C@@H]1CN(c2ccc(C#N)c3ncccc23)C[C@H](CN2CCN(c3cnc(N4CCNCC4)cn3)CC2)O1 [Example 6, 5-[(2R,6S)-2-methyl-6-[[4-(5-piperazin-1-ylpyrazin-2-yl)piperazin-1-yl]methyl]morpholin-4-yl]quinoline-8-carbonitrile]	51 nM
COc1cc(N2CCN(C[C@H]3CN(c4ccc(C#N)c5ncccc45)C[C@@H](C)O3)CC2)nc(N2CCNCC2)n1 [Example 91, 5-[(2S,6R)-2-[[4-(6-methoxy-2-piperazin-1-yl-pyrimidin-4-yl)piperazin-1-yl]methyl]-6-methyl-morpholin-4-yl]quinoline-8-carbonitrile]	13 nM
CO[C@@H]1CN(c2nccc(N3CCN(C[C@H]4CN(c5ccc(C#N)c6ncccc56)C[C@@H](C)O4)CC3)n2)C[C@@H]1N [Example 92, 5-[(2S,6R)-2-[[4-[2-[(3S,4R)-3-amino-4-methoxy-pyrrolidin-1-yl]pyrimidin-4-yl]piperazin-1-yl]methyl]-6-methyl-morpholin-4-yl]quinoline-8-carbonitrile]	5 nM
C[C@@H]1CN(c2ccc(C#N)c3ncccc23)C[C@H](CN2CCN(c3ncc(F)c(N4CCNCC4)n3)CC2)O1 [Example 94, 5-[(2S,6R)-2-[[4-(5-fluoro-4-piperazin-1-yl-pyrimidin-2-yl)piperazin-1-yl]methyl]-6-methyl-morpholin-4-yl]quinoline-8-carbonitrile]	13 nM
C[C@@H]1CN(c2ccc(C#N)c3ncccc23)C[C@H](CN2CCN(c3ccnc(N4C[C@@H](F)[C@@H](N)C4)n3)CC2)O1 [Example 95, 5-[(2S,6R)-2-[[4-[2-[(3S,4R)-3-amino-4-fluoro-pyrrolidin-1-yl]pyrimidin-4-yl]piperazin-1-yl]methyl]-6-methyl-morpholin-4-yl]quinoline-8-carbonitrile]	7 nM
C[C@@H]1CN(c2ccc(C#N)c3ncccc23)C[C@H](CN2CCN(c3ccnc(N4C[C@@H](N)[C@H](F)C4)n3)CC2)O1 [Example 96, 5-[(2S,6R)-2-[[4-[2-[(3R,4R)-3-amino-4-fluoro-pyrrolidin-1-yl]pyrimidin-4-yl]piperazin-1-yl]methyl]-6-methyl-morpholin-4-yl]quinoline-8-carbonitrile]	18 nM
CO[C@H]1CN(c2ccnc(N3CCN(C[C@H]4CN(c5ccc(C#N)c6ncccc56)C[C@@H](C)O4)CC3)n2)C[C@@H]1N [Example 97, 5-[(2S,6R)-2-[[4-[4-[(3S,4S)-3-amino-4-methoxy-pyrrolidin-1-yl]pyrimidin-2-yl]piperazin-1-yl]methyl]-6-methyl-morpholin-4-yl]quinoline-8-carbonitrile]	27 nM
CO[C@@H]1CN(c2nccc(N3CCN(C[C@H]4CN(c5ccc(C#N)c6nccnc56)C[C@@H](C)O4)CC3)n2)C[C@H]1N [Example 98, 8-[(2S,6R)-2-[[4-[2-[(3R,4R)-3-amino-4-methoxy-pyrrolidin-1-yl]pyrimidin-4-yl]piperazin-1-yl]methyl]-6-methyl-morpholin-4-yl]quinoxaline-5-carbonitrile]	6 nM
CO[C@H]1CN(c2nccc(N3CCN(C[C@H]4CN(c5ccc(C#N)c6nccnc56)C[C@@H](C)O4)CC3)n2)C[C@@H]1N [Example 99, 8-[(2S,6R)-2-[[4-[2-[(3S,4S)-3-amino-4-methoxy-pyrrolidin-1-yl]pyrimidin-4-yl]piperazin-1-yl]methyl]-6-methyl-morpholin-4-yl]quinoxaline-5-carbonitrile]	11 nM
C[C@@H]1CN(c2ccc(C#N)c3ncccc23)C[C@H](CN2CCN(c3ccnc(N4C[C@@H](N)[C@@H](F)C4)n3)CC2)O1 [Example 101, 5-[(2S,6R)-2-[[4-[2-[(3R,4S)-3-amino-4-fluoro-pyrrolidin-1-yl]pyrimidin-4-yl]piperazin-1-yl]methyl]-6-methyl-morpholin-4-yl]quinoline-8-carbonitrile]	11 nM
Cc1cnc(N2CCN(C[C@H]3CN(c4ccc(C#N)c5ncccc45)C[C@@H](C)O3)CC2)nc1N1CCNCC1 [Example 102, 5-[(2R,6S)-2-methyl-6-[[4-(5-methyl-4-piperazin-1-yl-pyrimidin-2-yl)piperazin-1-yl]methyl]morpholin-4-yl]quinoline-8-carbonitrile]	18 nM
C[C@@H]1CN(c2ccc(C#N)c3ncccc23)C[C@H](CN2CCN(c3ccnc(N4C[C@H]5NCCO[C@@H]5C4)n3)CC2)O1 [Example 103, 5-[(2S,6R)-2-[[4-[2-[(4aR,7aR)-3,4,4a,5,7,7a-hexahydro-2H-pyrrolo[3,4-b][1,4]oxazin-6-yl]pyrimidin-4-yl]piperazin-1-yl]methyl]-6-methyl-morpholin-4-yl]quinoline-8-carbonitrile]	10 nM
CO[C@H]1CN(c2cc(C)nc(N3CCN(C[C@H]4CN(c5ccc(C#N)c6nccnc56)C[C@@H](C)O4)CC3)n2)C[C@@H]1N [Example 104, 8-[(2S,6R)-2-[[4-[4-[(3S,4S)-3-amino-4-methoxy-pyrrolidin-1-yl]-6-methyl-pyrimidin-2-yl]piperazin-1-yl]methyl]-6-methyl-morpholin-4-yl]quinoxaline-5-carbonitrile]	22 nM
